# Test results as given in publication PMC5571287 (Antimicrobial Agents and Chemotherapy, 2017).
# Where two headings read alike, the source gives them in different places.
# How the values were obtained:
# RSV A Long [1] = settings: human respiratory syncytial virus
# RSV A Long [2] = assay: microbe, parasite or virus in culture; type: cell-based, respiratory syncytial virus
# RSV A USU\v1225 = assay: CPE 2, neutral red 96-well CPE assay in HEp-2; type: cell-based; settings: human respiratory syncytial virus
# Description: (§1) For RSV A 2001/3-12, 1998/3-2, and USU⃥v1225, CPE was induced in HEp-2 cells for 7 days and the plates were then stained with neutral red dye for approximately 2 h. The intracellular incorporated dye was extracted in 50:50 Sorensen citrate buffer-ethanol and the absorbance read on a spectrophotometer. The optical density (OD) of test wells was converted to percentage of cell and virus controls. […] The virus inocula were ∼63 50% cell culture infectious doses (CCID50) per well for 2001/3-12, ∼40 CCID50/well for 1998/3-2, and ∼32 CCID50/well for USU\v1225. This assay was conducted in Utah State University (Logan, UT).
# RSV A 1998/3-2 = assay: CPE 2, neutral red 96-well CPE assay in HEp-2; type: cell-based; settings: human respiratory syncytial virus
# Description: as §1
# RSV A 2001/3-12 = assay: CPE 2, neutral red 96-well CPE assay in HEp-2; type: cell-based; settings: human respiratory syncytial virus
# Description: as §1
# RSV A2 [3] = settings: human respiratory syncytial virus
# human polymerase γ = human polymerase γ (Homo sapiens, UniProt P54098); assay: Human polymerase inhibition in vitro (data not shown); type: biochemical; settings: up to 1 μM
# human polymerase γ, sequence (P54098 whole entry): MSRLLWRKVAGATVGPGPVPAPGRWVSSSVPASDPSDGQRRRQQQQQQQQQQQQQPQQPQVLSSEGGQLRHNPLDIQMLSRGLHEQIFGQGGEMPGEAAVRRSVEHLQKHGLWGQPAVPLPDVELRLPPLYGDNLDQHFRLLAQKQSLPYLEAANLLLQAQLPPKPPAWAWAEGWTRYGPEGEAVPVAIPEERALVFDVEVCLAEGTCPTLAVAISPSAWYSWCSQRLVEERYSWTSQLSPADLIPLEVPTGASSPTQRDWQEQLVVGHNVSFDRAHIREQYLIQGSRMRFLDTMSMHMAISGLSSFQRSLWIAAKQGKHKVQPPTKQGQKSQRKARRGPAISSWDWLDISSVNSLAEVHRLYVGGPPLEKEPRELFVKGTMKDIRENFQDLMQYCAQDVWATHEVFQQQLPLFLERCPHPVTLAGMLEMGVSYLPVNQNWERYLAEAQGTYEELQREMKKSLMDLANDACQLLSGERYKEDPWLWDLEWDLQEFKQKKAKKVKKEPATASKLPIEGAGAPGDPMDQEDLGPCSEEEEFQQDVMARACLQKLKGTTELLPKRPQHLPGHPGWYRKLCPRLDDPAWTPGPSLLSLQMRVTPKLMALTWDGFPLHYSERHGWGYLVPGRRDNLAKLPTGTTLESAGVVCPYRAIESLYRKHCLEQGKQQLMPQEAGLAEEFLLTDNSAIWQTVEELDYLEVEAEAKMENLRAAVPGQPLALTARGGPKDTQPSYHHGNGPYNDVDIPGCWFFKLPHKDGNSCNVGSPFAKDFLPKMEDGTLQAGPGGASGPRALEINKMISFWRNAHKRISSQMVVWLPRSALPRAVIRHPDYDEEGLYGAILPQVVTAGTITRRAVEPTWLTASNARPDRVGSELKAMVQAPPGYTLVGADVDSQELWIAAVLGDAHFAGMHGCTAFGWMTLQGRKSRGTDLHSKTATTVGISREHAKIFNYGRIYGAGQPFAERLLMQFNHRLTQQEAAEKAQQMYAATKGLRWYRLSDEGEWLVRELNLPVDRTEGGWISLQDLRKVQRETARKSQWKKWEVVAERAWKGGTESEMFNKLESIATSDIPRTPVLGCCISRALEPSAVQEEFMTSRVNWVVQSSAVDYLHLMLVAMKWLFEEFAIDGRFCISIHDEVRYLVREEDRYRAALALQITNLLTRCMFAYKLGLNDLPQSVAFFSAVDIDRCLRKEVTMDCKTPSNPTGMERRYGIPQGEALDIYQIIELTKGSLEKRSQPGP
# in vitro [4] = settings: rhesus monkey
# [5] = Cell viability in HEp-2 cells (resazurin); settings: human, HEp-2 cells
# HEp-2 cells = assay: Cell viability in HEp-2 cells (resazurin); settings: concentrations up to 14 μM
# RSVB 1276 [6] = assay: microbe, parasite or virus in culture; type: cell-based; settings: human respiratory syncytial virus, RSVB 1276, clinical, 3 parameter curve fit
# RSV A 1997/12-35 = assay: CPE 1, resazurin 384-well CPE assay in HEp-2; type: cell-based; settings: human respiratory syncytial virus
# Description: (§2) For known clinical strains (RSV A 1997/12-35, 2001/2-20, 200/3-4, and Memphis 37), a 384-well-format resazurin-based CPE assay was conducted.
# RSV A 2000/3-4 = assay: CPE 1, resazurin 384-well CPE assay in HEp-2; type: cell-based; settings: human respiratory syncytial virus
# Description: as §2
# RSV A 2001/2-20 = assay: CPE 1, resazurin 384-well CPE assay in HEp-2; type: cell-based; settings: human respiratory syncytial virus
# Description: as §2
# RSV A Memphis 37c = assay: CPE 1, resazurin 384-well CPE assay in HEp-2; type: cell-based; settings: human respiratory syncytial virus
# Description: as §2
# RSVB 1276 [7] = settings: human respiratory syncytial virus
# human polymerase β = human polymerase β (Homo sapiens, UniProt P06746); assay: Human polymerase inhibition in vitro (data not shown); type: biochemical; settings: up to 1 μM
# in vitro [8] = settings: African green monkey
# Rhinovirus 16 = assay: microbe, parasite or virus in culture; type: cell-based, human rhinovirus; settings: Rhinovirus 16, HeLa
# RSV A2 [9] = assay: RSV F protein cell-based ELISA in BEAS-2B cells, washout / nonwashout; settings: human respiratory syncytial virus, read-out: IC50, F protein expressed on cell surfaces
# Description: Approximately 72 h after BEAS-2B cells were seeded in 96-well plates (at 4 × 10^4/ml; 100 μl/well), the medium in the plates was removed and replaced with 200 μl of fresh LHC-8 medium. […] For nonwashout plates, the compounds and DMSO (1 μl/well) were applied immediately after infection. On day 3 postinfection, supernatant was aspirated and the cells were fixed with 4% formaldehyde (100 μl in PBS solution) for 20 min at room temperature (RT), washed three times with wash buffer (WB) (200 μl; PBS containing 0.05% Tween 20), and incubated with blocking buffer (100 μl; 5% bovine serum albumin [BSA] in wash buffer) for 1 h. […] Abcam plc, Cambridge, UK). After a washing, cells were incubated with a horseradish peroxidase (HRP)-conjugated anti-mouse IgG antibody (50 μl/well; 1:2,000, Abcam) for 1 h. Tetramethylbenzidine (TMB) substrate (50 μl) was then added after two washings with WB and one with PBS, and the reaction was stopped by the addition of aqueous sulfuric acid (2 N; 50 μl/well). The resultant signal was determined colorimetrically (OD at 450 nm [OD450] with a reference wavelength of 655 nm) in a microplate reader (Multiskan FC; Thermo Fisher Scientific). Cells were then washed, and 0.5% crystal violet solution ([…]) was applied for 30 min. […] The measured F protein signals (OD450 − OD655 readings) were corrected for cell number (OD595 readings) by dividing the OD450–655 by the OD595 readings.
# RSV A2 [10] = assay: CPE assay, RSV A2 in HEp-2 cells (resazurin); type: cell-based, respiratory syncytial virus; settings: human respiratory syncytial virus, HEp-2
# RSV B 9320 = settings: human respiratory syncytial virus
# [11] = target: minigenome construct comprising the L protein, M2-1, N, and P of RSV A2 (Human respiratory syncytial virus A, UniProt P28887); assay: cell-based
# minigenome construct comprising the L protein, M2-1, N, and P of RSV A2, sequence (P28887 whole entry): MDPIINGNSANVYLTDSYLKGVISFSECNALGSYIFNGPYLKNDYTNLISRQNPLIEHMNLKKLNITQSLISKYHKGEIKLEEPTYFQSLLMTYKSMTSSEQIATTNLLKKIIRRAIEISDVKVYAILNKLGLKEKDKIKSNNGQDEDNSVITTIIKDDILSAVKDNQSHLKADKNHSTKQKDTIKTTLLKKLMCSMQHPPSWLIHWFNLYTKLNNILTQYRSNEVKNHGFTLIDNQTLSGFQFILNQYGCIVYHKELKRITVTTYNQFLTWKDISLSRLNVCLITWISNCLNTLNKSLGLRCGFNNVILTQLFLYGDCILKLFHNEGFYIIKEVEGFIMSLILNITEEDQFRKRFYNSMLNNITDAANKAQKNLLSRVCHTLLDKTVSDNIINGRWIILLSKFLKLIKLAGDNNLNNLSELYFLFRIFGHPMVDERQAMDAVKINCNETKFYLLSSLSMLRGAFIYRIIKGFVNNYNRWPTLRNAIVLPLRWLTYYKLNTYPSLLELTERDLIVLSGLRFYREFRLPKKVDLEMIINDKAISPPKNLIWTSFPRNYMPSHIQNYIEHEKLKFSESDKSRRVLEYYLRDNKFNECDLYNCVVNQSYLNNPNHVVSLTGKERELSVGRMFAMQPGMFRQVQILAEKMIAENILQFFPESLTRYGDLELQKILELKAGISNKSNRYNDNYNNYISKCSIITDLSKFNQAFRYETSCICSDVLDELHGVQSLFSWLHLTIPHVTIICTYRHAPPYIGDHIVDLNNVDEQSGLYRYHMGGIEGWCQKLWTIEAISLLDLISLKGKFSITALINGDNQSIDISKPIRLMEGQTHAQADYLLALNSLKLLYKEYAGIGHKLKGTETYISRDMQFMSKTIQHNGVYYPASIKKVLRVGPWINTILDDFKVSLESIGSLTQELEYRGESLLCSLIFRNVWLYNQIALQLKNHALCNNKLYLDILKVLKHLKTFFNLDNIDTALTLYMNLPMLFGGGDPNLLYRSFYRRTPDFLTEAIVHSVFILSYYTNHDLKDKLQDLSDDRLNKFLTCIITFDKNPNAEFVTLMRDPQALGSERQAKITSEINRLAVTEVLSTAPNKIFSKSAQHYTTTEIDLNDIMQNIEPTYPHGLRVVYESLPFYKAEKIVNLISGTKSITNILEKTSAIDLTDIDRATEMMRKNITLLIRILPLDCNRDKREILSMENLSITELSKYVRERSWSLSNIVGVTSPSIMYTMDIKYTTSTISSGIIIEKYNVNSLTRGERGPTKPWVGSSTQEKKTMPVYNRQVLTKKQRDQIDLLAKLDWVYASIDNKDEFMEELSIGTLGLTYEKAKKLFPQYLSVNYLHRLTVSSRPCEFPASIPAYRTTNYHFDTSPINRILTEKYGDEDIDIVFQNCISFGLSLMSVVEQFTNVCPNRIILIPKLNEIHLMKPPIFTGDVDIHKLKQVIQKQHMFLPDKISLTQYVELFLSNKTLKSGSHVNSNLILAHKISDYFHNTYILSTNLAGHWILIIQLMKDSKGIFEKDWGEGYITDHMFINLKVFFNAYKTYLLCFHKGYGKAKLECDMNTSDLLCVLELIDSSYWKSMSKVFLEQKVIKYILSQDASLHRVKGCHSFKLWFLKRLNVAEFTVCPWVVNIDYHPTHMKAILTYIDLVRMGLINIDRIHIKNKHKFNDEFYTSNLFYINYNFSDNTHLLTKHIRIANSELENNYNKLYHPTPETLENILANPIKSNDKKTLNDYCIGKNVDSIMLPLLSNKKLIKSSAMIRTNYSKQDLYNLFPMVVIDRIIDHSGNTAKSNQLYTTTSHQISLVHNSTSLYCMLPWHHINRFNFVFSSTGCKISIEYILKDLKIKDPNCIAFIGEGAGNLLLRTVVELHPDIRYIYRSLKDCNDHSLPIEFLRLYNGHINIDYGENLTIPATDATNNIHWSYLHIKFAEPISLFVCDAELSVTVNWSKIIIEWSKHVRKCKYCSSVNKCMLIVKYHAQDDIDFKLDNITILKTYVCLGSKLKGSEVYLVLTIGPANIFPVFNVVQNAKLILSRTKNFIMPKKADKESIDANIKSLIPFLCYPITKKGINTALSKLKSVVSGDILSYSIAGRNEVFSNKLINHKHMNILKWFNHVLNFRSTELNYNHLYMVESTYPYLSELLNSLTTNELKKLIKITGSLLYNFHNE
# minigenome construct comprising the L protein, M2-1, N, and P of RSV A2, sequence (P03421 whole entry, further chain): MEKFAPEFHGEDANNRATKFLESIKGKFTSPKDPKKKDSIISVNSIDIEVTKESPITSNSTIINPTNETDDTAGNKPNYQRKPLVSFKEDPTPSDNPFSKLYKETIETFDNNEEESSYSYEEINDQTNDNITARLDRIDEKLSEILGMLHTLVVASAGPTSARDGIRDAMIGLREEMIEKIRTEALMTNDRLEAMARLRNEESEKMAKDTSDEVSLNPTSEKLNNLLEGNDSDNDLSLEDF
# RSV B WST = assay: CPE assay, RSV B Washington in HEp-2 cells (resazurin); type: cell-based, respiratory syncytial virus; settings: human respiratory syncytial virus, HEp-2
# [12] = HEp-2, read-out: PCR IC50 (0.3 Log PFUe reduction) (converted)
# [13] = HEp-2, read-out: PCR IC90 (1 Log PFUe reduction) (converted)
smiles,measurement,setting,value
"Cc1cnc(N2CC3(CCOCC3)C2)c(C(=O)Nc2ccc(C(=O)N3CCc4cc(C(=O)Nc5c(C)cccc5F)sc4-c4ccccc43)cc2)c1 [PC786, N-(2-fluoro-6-methylphenyl)-6-(4-(5-methyl-2-(7-oxa-2-azaspiro[3.5]nonan-2-yl)nicotinamido)benzoyl)-5,6-dihydro-4H-benzo[b]thieno[2,3-d]azepine-2-carboxamide]",IC50,RSV A Long [1]; [12],2.65 nM
same,IC90,RSV A Long [1]; [13],3.45 nM
same,IC90 or IC95,RSV A Long [2]; HEp-2,<0.42 nM
same,IC50,"RSV A Long [2]; human respiratory syncytial virus, HEp-2, plaque reduction, applied 2 h before infection",< 0.42 nM
same,IC50,RSV A USU\v1225,1.3 nM
same,IC50,RSV A 1998/3-2,2.5 nM
same,IC50,RSV A 2001/3-12,3.2 nM
same,IC50,RSV A2 [3]; [12],1.52 nM
same,IC90,RSV A2 [3]; [13],1.69 nM
same,inhibitory effects on human polymerase γ,human polymerase γ,no measurable inhibitory effects
same,CC50,in vitro [4],> 14000 nM
same,CC50,[5],> 14000 nM
same,Cell viability,HEp-2 cells,did not affect cell viability
same,IC50,RSVB 1276 [6]; read-out: CPE IC50,50.6 nM
same,IC90,RSVB 1276 [6]; read-out: CPE IC90,821 nM
same,IC50,RSV A 1997/12-35,0.35 nM
same,IC50,RSV A 2000/3-4,0.14 nM
same,IC50,RSV A 2001/2-20,0.53 nM
same,IC50,RSV A Memphis 37c,0.5 nM
same,IC50,"RSVB 1276 [7]; HEp-2, read-out: RSV titre in supernatant IC50 (0.3 Log PFUe reduction) (converted)",15.1 nM
same,IC90,"RSVB 1276 [7]; HEp-2, read-out: RSV titre in supernatant IC90 (1 Log PFUe reduction) (converted)",22.5 nM
same,inhibitory effects on human polymerase β,human polymerase β,no measurable inhibitory effects
same,CC50,in vitro [8],> 14000 nM
same,IC50,Rhinovirus 16; Enterovirus,> 14000 nM
same,IC90 or IC95,Rhinovirus 16,>14000 nM
same,IC50,RSV A2 [9]; 2 h exposure then 24-h washout before inoculation,0.792 nM
same,IC50,RSV A2 [9]; nonwashout (sustained presence of drug),0.129 nM
same,IC50,"RSV A2 [10]; RSV A2, laboratory, low-passage isolate study, read-out: CPE assay IC50",0.96 nM
same,IC90,"RSV A2 [10]; RSV A2, laboratory, low-passage isolate study, read-out: CPE assay IC90",1.82 nM
same,IC50,RSV A2 [10]; read-out: RSV A2 IC50,0.5 ± 0.0014 nM
same,IC90,RSV A2 [10]; read-out: RSV A2 IC90,0.63 ± 0.035 nM
same,IC50,RSV B 9320; [12],30.3 nM
same,IC90,RSV B 9320; [13],31 nM
same,inhibition at 0.14 µM,"[11]; HEp-2, at 140 nM, read-out: maximum inhibition achieved",100%
same,IC90,"[11]; luciferase, HEp-2, wild-type L protein",1.54 nM
same,IC50,RSV B WST,27.3 ± 0.77 nM
same,IC90,RSV B WST,57.1 ± 3.87 nM
